Assay results taken from patent publication EP4737453A1, “NOVEL SELENOPHENE DERIVATIVES” (Aigen Sciences Inc., priority 2023, dated 2025).
pIC50: −log10 of the molar value. Read-outs that look alike come from different tables or passages of the source.

Columns and labels:
[1] = biological target: T1, SOS1 and KRAS G12C interaction (Homo sapiens, UniProt Q07889); test: Biochemical analysis of the inhibitory activity of SOS1 and KRAS G12C interaction (time-resolved fluorescence, 665/615 nm)
T1 sequence (Q07889 564-1049 limits assumed): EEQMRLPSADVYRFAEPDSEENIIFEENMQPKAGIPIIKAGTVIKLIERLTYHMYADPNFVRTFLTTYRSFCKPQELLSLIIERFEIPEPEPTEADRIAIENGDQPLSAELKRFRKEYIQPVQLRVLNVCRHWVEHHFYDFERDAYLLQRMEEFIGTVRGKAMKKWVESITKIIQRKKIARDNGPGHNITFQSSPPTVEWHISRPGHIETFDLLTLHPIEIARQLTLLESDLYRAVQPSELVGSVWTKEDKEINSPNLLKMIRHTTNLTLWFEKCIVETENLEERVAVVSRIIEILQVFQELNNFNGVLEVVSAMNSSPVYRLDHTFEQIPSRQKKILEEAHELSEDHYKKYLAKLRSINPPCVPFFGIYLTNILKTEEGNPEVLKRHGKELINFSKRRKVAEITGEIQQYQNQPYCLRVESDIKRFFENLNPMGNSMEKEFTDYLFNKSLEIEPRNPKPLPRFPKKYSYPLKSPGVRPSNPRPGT
Experimental: Biochemical analysis of the inhibitory activity of SOS1 and KRAS G12C interaction
In this experimental example, the efficacy of the compound according to the present invention in inhibiting the binding of KRAS and SOS1 was biochemically measured. A KRAS G12C working solution was prepared by adding biotin-linked KRAS G12C protein and europium-linked streptavidin to assay buffer solution (20 mM HEPES, 50 mM NaCl, 200 µg/mL […] (BSA), 0.01% Pluronic F127). Then, SOS1, in which a tag consisting of six histidine residues is covalently linked, and anti-histidine tag antibody D2 were added to the assay buffer to prepare an SOS1 working solution. After these two working solutions were added to the wells of a well plate, solutions diluted according to the experimental concentration of the test compound from the 10 mM dimethyl sulfoxide (DMSO) stock solution of the Example compound or positive control compound were added to the wells in 100 nL aliquots using an Echo automatic dispenser (Beckman Coulter, USA), or a DMSO blank was added to the wells.

[2] = test system: NCI-H358; test: Cell Growth Inhibition Assay (3D CellTiter-Glo); format: cell-based; conditions: Homo sapiens, read-out: Cell growth IC50
Experimental: Cell Growth Inhibition Assay
In this experimental example, the cell growth inhibitory effect of compounds according to the present invention and positive control compounds in tumor cell lines was examined.
The cell culture medium containing the compound was replaced by 100 µL every 3 days. Luminescence analysis was performed using the 3D CellTiter-Glo Luminescent Cell Viability Assay Kit (Promega, USA) (Promega catalog number G9681). […] The percent cell growth inhibition rate was calculated from the measured relative luminescence unit (RLU) as follows. Inhibition rate = 1−((RLU compound−RLU blank)/(RLU control−RLU blank)) X 100 [formula]

[3] = biological target: T2, SOS2 and KRAS G12C interaction (Homo sapiens, UniProt Q07890); format: biochemical; conditions: SOS2, KRAS G12Cs; read-out: Enzyme activity IC50
T2 sequence (Q07890 1-1332): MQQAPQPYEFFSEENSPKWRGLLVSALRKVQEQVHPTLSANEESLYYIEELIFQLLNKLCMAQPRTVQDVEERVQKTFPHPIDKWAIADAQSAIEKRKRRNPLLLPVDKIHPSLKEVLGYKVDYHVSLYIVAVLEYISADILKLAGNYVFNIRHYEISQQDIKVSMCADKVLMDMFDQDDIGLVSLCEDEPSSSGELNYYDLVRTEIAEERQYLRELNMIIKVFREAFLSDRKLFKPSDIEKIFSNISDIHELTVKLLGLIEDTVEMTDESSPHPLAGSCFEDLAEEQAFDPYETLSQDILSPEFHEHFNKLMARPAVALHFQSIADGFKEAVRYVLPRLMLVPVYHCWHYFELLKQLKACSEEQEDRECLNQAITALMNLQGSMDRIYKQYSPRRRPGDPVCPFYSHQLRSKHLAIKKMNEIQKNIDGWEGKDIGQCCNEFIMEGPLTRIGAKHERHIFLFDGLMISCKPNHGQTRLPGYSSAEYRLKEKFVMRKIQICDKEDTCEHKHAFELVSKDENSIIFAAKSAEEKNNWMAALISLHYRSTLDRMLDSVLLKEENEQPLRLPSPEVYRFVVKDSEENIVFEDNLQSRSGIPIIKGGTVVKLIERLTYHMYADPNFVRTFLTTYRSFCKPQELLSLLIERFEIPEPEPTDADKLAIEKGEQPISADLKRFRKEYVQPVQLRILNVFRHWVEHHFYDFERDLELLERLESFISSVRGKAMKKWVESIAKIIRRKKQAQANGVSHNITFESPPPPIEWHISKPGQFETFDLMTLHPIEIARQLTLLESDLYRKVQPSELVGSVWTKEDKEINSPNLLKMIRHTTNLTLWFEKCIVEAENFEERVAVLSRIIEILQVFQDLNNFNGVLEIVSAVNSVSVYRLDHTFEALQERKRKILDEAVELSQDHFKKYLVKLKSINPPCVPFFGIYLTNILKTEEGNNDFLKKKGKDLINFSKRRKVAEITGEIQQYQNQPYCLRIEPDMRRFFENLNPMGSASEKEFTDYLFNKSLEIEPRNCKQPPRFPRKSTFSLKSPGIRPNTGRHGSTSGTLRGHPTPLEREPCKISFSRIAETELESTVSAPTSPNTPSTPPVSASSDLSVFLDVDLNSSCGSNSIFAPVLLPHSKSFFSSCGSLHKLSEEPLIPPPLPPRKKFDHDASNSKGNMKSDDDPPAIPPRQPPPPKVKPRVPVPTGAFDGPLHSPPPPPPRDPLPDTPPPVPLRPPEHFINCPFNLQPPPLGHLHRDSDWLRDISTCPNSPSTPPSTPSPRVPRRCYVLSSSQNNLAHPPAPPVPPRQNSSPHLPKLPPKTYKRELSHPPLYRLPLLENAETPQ

[4] = test system: MIA-PaCa-2; test: Reactive oxygen species (ROS) production assay; format: cell-based; conditions: MIA-PaCa-2 cells, 10 µM, 24 hours; Figure 3
Experimental: Reactive oxygen species (ROS) production assay
In this experimental example, it was examined that the compound according to the present invention has the effect of increasing reactive oxygen in tumor cells.
MIA-PaCa-2 (Korea Cell Line Bank KCLB No. 21420), a cancer cell line harboring KRAS G12C mutation, was cultured in a cell culture medium containing RPMI1640 (Gibco, USA, catalog no. 11875-119), 10% fetal bovine serum (HyClone, USA, catalog no. SH30919.03), and 1 × diluted HyClone Antibiotic Antimycotic solution (HyClone, USA, catalog no. SV30079.01). 3 × 10^5 cells were seeded per well in a 6-well plate and cultured for 1 day at 37°C under 5% CO2 conditions. […] The cells were then collected in a microtube and analyzed for fluorescence using a BD LSRFortessa™ X-20 Cell Analyzer (BD Biosciences, USA) (excitation wavelength: 488 nm, emission wavelength: 535 nm). The fluorescence intensity due to the increase in reactive oxygen species was measured for 10,000 cells. Among the cells treated with 500 µM hydrogen peroxide, which was the positive control, the section in which the fluorescence intensity increased compared to the cells treated with the blank sample was found, and the average fluorescence intensity of the cells within this section was calculated. […]

[5] = SOS1, KRAS G12C, 60 minutes at room temperature, read-out: Enzyme activity IC50

In the case of `[2H]C([2H])([2H])NCc1ccccc1-c1c[se]c([C@@H](C)Nc2nc(C)nc3cc(OC)c(OC)cc23)c1` [Example 7, (R)-6,7-dimethoxyl-2-methyl-N-(1-(4-(2-(((methyl-d3)amino)methyl)phenyl)selenophen-2-yl)ethyl)quinazolin-4-amine], the pIC50 [1] was 7.72 and the pIC50 ([2]; NCI-H358, 288 h) was 7.59.

Molecule `COc1cc2nc(C)nc(N[C@H](C)c3cc(-c4ccccc4CN(C)C)c[se]3)c2cc1OC` [Example 5, (R)-N-(1-(4-(2-((dimethylamino)methyl)phenyl)selenophen-2-yl)ethyl)-6,7-dimethoxyl-2-methylquinazolin-4-amine] has a pIC50 [1] of 7.56 and a pIC50 ([2]; NCI-H358, 288 h) of 7.30.

Molecule `CNCc1ccccc1-c1csc([C@H](C)Nc2nc(C)nc3cc(OC)c(OC)cc23)c1` [BAY-293, (S)-6,7-dimethoxy-2-methyl-N-[1-[4-[2-[(methylamino)methyl]phenyl]thiophene-2-yl]ethyl]quinazolin-4-amine, reference compound] has a pIC50 ([2]; 288 h, NCI-H358 (KRAS G12C), 96-well 3D assay plate, 12 days) of 6.87.

Work on `COc1cc2nc(C)nc(N[C@H](C)c3cc(-c4ccccc4CN(C)C)c[se]3)c2cc1O[C@H]1CCOC1` [Example 8, N-((R)-1-(4-(2-((dimethylamino)methyl)phenyl)selenophen-2-yl)ethyl)-7-methoxy-2-methyl-6-(((S)-tetrahydrofuran-3-yl)oxy)quinazolin-4-amine] yielded a pIC50 [1, 5] of 7.79.

In the case of `Cc1c(C#N)cccc1[C@@H](C)Nc1nnc(C)c2cnc(N3CCOCC3)cc12` [MRTX0902, (R)-2-methyl-3-(1-((4-methyl-7-morpholinopyrido[3,4-d]pyridazine-1-yl)amino)ethyl)benzonitrile, reference compound], the pIC50 [3] was 5.79, the “ROS production compared to the blank sample” value [4] was “did not increase ROS production” and the pIC50 ([2]; NCI-H358, 288 h) was 6.97.

For `COc1cc2nc(C)nc(N[C@H](C)c3cc(-c4ccccc4CN4CCCC4)c[se]3)c2cc1O[C@H]1CCOC1` [Example 9, 7-methoxy-2-methyl-N-((R)-1-(4-(2-(pyrrolidine-1-ylmethyl)phenyl)selenophen-2-yl)ethyl)-6-(((S)-tetrahydrofuran-3-yl)oxy)quinazolin-4-amine], the pIC50 [1, 5] was 7.65.

With `CNCc1ccccc1-c1c[se]c([C@@H](C)Nc2nc(C)nc3cc(OC)c(O[C@H]4CCOC4)cc23)c1` [Example 2, 7-methoxy-2-methyl-N-((R)-1-(4-(2-((methylamino)methyl)phenyl)selenophen-2-yl)ethyl)-6-(((S)-tetrahydrofuran-3-yl)oxy)quinazolin-4-amine] the pIC50 [1] was 7.78 and the pIC50 ([2]; NCI-H358, 288 h) was 7.23.

`CNCc1ccccc1-c1c[se]c([C@@H](C)Nc2nc(Cl)nc3c2CN(C(=O)C2(OC)CCOCC2)C3)c1` [Example 3, (R)-(2-chloro-4-((1-(4-(2-((methylamino)methyl)phenyl)selenophen-2-yl)ethyl)amino)-5,7-dihydro-6H-pyrolo[3,4-d]pyrimidine-6-yl)(4-methoxytetrahydro-2H-pyran-4-yl)methanone] was tested, and the pIC50 [1] was 7.46 and the pIC50 ([2]; NCI-H358, 288 h) was 6.91.

`CNCc1ccccc1-c1c[se]c([C@@H](C)Nc2nnc(C)c3cnc(N4CCOCC4)cc23)c1` [Example 4, (R)-4-methyl-N-(1-(4-(2-((methylamino)methyl)phenyl)selenophen-2-yl)ethyl)-7-morpholinopyrido[3,4-d]pyridazine-1-amine] showed a pIC50 [1] of 7.87 and a pIC50 ([2]; NCI-H358, 288 h) of 7.29.

Work on `COc1cc2nc(C)nc(N[C@H](C)c3cc(-c4ccccc4CN4CCCC4)c[se]3)c2cc1OC` [Example 6, (R)-6,7-dimethoxyl-2-methyl-N-(1-(4-(2-(pyrrolidine-1-ylmethyl)phenyl)selenophen-2-yl)ethyl)quinazolin-4-amine] yielded a pIC50 [1] of 7.12 and a pIC50 ([2]; NCI-H358, 288 h) of 7.06.
